Converted amounts (≈) assume the structure as drawn. The source made the active and inactive calls. The rule behind the calls is not given here.
Key:
[1] = test system: Plasmodium berghei; experiment: Antiplasmodial activity against drug-sensitive Plasmodium berghei infected in mouse assessed as cure from infection at 640 mg/kg, sc administered as single dose 72 hrs post infection measured 60 days postinfection; format: functional, organism-based; set-up: dose 640 mg/kg
[2] = test system: Plasmodium berghei; experiment: Antiplasmodial activity against drug-sensitive Plasmodium berghei infected in mouse assessed as change in mean survival time at 320 mg/kg, sc administered as single dose 72 hrs post infection measured 60 days postinfection; format: functional; conditions: route subcutaneous
[3] = test system: Plasmodium berghei; experiment: Antiplasmodial activity against drug-sensitive Plasmodium berghei infected in mouse assessed as change in mean survival time at 160 mg/kg, sc administered as single dose 72 hrs post infection; format: functional; conditions: route subcutaneous
[4] = test system: Plasmodium berghei; experiment: Antiplasmodial activity against drug-sensitive Plasmodium berghei infected in mouse assessed as change in mean survival time at 80 mg/kg, sc administered as single dose 72 hrs post infection; format: functional; conditions: route subcutaneous
[5] = test system: Plasmodium berghei; experiment: Antiplasmodial activity against drug-sensitive Plasmodium berghei infected in mouse assessed as change in mean survival time at 40 mg/kg, sc administered as single dose 72 hrs post infection; format: functional; conditions: route subcutaneous
[6] = test system: Plasmodium berghei; experiment: Antiplasmodial activity against drug-sensitive Plasmodium berghei infected in mouse assessed as change in mean survival time at 20 mg/kg, sc administered as single dose 72 hrs post infection; format: functional; conditions: route subcutaneous
[7] = test system: Enterococcus faecalis; experiment: Antibacterial activity against Streptococcus faecalis MGH2 assessed as growth inhibition by Gradient plate test; format: functional
[8] = test system: Staphylococcus aureus; experiment: Antibacterial activity against Staphylococcus aureus UC-76 assessed as growth inhibition by Gradient plate test; format: functional
[9] = test system: Staphylococcus aureus; experiment: Antibacterial activity against drug-resistant Staphylococcus aureus S18713 assessed as growth inhibition by Gradient plate test; format: functional
[10] = test system: Pseudomonas aeruginosa; experiment: Antibacterial activity against Pseudomonas aeruginosa 28 by Gradient plate test; format: functional, organism-based
[11] = test system: Escherichia coli; experiment: Antibacterial activity against Escherichia coli Vogel by Gradient plate test; format: functional, organism-based
[12] = test system: Shigella sonnei; experiment: Antibacterial activity against Shigella sonnei C-10 by Gradient plate test; format: functional, organism-based
[13] = test system: Plasmodium berghei; experiment: Antiplasmodial activity against drug-sensitive Plasmodium berghei infected in mouse assessed as change in mean survival time at 640 mg/kg, sc administered as single dose 72 hrs post infection; format: functional; conditions: route subcutaneous
[14] = test system: Plasmodium berghei; experiment: Antiplasmodial activity against drug-sensitive Plasmodium berghei infected in mouse assessed as cure from infection at 320 mg/kg, sc administered as single dose 72 hrs post infection measured 60 days postinfection; format: functional, organism-based; set-up: dose 320 mg/kg
[15] = test system: Mus musculus; experiment: Toxicity in drug-sensitive Plasmodium berghei infected mouse at 640 mg/kg, sc administered as single dose 72 hrs post infection […]; format: organism-based; set-up: dose 640 mg/kg, route subcutaneous; conditions: in vivo
[16] = test system: Mus musculus; experiment: Toxicity in drug-sensitive Plasmodium berghei infected mouse at 320 mg/kg, sc administered as single dose 72 hrs post infection measured 2 to 5 days postinfection; format: organism-based; set-up: dose 320 mg/kg, route subcutaneous; conditions: in vivo
[17] = test system: Plasmodium berghei; experiment: Antiplasmodial activity against drug-sensitive Plasmodium berghei infected in mouse assessed as cure from infection at 160 mg/kg, sc administered as single dose 72 hrs post infection measured 60 days postinfection; format: functional, organism-based; set-up: dose 160 mg/kg

SMILES	Activity [1]	MSD [2] [days]	MSD [3] [days]	MSD [4] [days]	MSD [5] [days]	MSD [6] [days]	MIC [7] [µg/mL]	MIC [8] [µg/mL]	MIC [9] [µg/mL]	Activity [10]	Activity [11]	Activity [12]	MSD [13] [days]	Activity [14]	Activity [15]	Activity [16]	Activity [17]
CC(Sc1ccc2nc(N)nc(N)c2c1)c1ccc(Cl)cc1 (stereo unspecified)	Active	17	10.9	9.6	5.7	3.7	< 0.25	< 0.25	1 (≈ 3.02 µM)	inactive	inactive	inactive					
Nc1nc(N)c2c(Cl)c([S+]([O-])Cc3ccc(Cl)cc3)ccc2n1 (stereo unspecified)			0.3		0.1		< 0.25	> 25	> 25	inactive	inactive	inactive	0.3				
Nc1nc(N)c2cc(SC34CC5CC(CC(C5)C3)C4)ccc2n1		1.1	0.3	0.3	0.3	0.1	< 0.25	< 0.25	< 0.25	inactive	inactive	inactive	10.7				
Nc1nc(N)c2cc(OCc3ccc(Cl)cc3)ccc2n1		11.2	7.2	3.6	1.7	1.2							13.3				
Nc1nc(N)c2cc(SCc3ccc(Cl)cc3)ccc2n1		9.8	4.2	2.6	0.8	0.4	< 0.25	< 0.25	< 0.25	inactive	inactive	inactive	17.3				
Nc1nc(N)c2cc(S(=O)(=O)Cc3ccc(Cl)cc3)ccc2n1		0.9	0.3	0.3	0.1	0.1	> 25	> 25	> 25	inactive	inactive	inactive	5.9				
CC(=O)O.Nc1nc(N)c2cc(NCc3ccc(Cl)c(Cl)c3)ccc2n1	Active		9.9	12.9	7.1	2.5								Active			
Nc1nc(N)c2cc(SCCc3ccccc3)ccc2n1		17.2	4.5	0.9	0.5	0.5											
CC1(C)N=C(N)N=C(N)N1c1ccc(Cl)cc1.Cl [CHLORCYCLOGUANIL HYDROCHLORIDE]				21.6	13.4	7.9									Toxic	Toxic	Active
Nc1nc(N)c2c(Cl)c(S(=O)(=O)Cc3ccc(Cl)cc3)ccc2n1			0.1		0.1		< 0.25	5 (≈ 13 µM)	10 (≈ 26.1 µM)	inactive	inactive	inactive	0.1				
Nc1nc(N)c2cc([S+]([O-])Cc3ccc(Cl)cc3)ccc2n1 (stereo unspecified)		2.9	0.9	0.7	0.5	0.3	> 25	25 (≈ 75.1 µM)	> 25	inactive	inactive	inactive	5.9				
Nc1nc(N)c2cc(SC3CCCCC3)ccc2n1	Active	12.9	9.1	5.7	2.5	0.7	10 (≈ 36.4 µM)	< 0.25	10 (≈ 36.4 µM)	inactive	inactive	inactive					
Nc1nc(N)c2c(Cl)c(SCc3ccc(Cl)cc3)ccc2n1		3.1	1.7	1.1	0.5	0.5							7.9				
Nc1nc(N)c2cc(SCc3ccccc3)ccc2n1		4.9	1.1	0.9	0.5	0.5							10.7				
COc1cc(Cc2cnc(N)nc2N)cc(OC)c1OC [TRIMETHOPRIM]							< 0.25	< 0.25	< 0.25	inactive	inactive	inactive					

Source: ChEMBL document CHEMBL3244140, “Folate antagonists. 12. Antimalarial and antibacterial effects of 2,4-diamino-6-[(aralkyl and alicyclid)thio-, sulfinyl-, and sulfonyl]quinazolines” (J Med Chem, 1978)
